Active and inactive are the calls of the source. The rule behind the calls is not given here.

Data set [1] concerns RAW264.7. Nature of the data set: Cytotoxicity against mouse RAW264.7 cells assessed as reduction in cell viability at 10 to 40 uM by MTT assay. The class given is cell-based. As to conditions: raw264.7, 40 µM. On the technique in general: Tetrazolium assays rely on reduction of a dye to a coloured formazan, in cell work by metabolically active cells.
Data set [2] relates to RAW264.7. Nature of the data set: Anti-inflammatory activity in LPS-stimulated mouse RAW264.7 cells assessed as inhibition of nitric oxide production at 20 uM by Griess reaction based ELISA method. It counts as functional. (Nitrite, measured by Griess reagent, commonly stands in for NO production.)
For data set [3], the system named is RAW264.7. Nature of the data set: Anti-inflammatory activity in LPS-stimulated mouse RAW264.7 cells assessed as inhibition of nitric oxide production at 10 uM by Griess reaction based ELISA method. It counts as functional, cell-based.
The subject of data set [4] is RAW264.7. Nature of the data set: Anti-inflammatory activity in LPS-stimulated mouse RAW264.7 cells assessed as inhibition of nitric oxide production at 40 uM by Griess reaction based ELISA method. The class given is functional.
Data set [5] has as its system RAW264.7. The experiment in a line: Anti-inflammatory activity in LPS-stimulated mouse RAW264.7 cells assessed as inhibition of nitric oxide production at 10 to 40 uM by Griess reaction based ELISA method. The class given is functional.

For `CC(=O)/C=C/[C@@]12O[C@@H](C[C@]1(C)O[C@@H]1O[C@H](CO)[C@@H](O)[C@H](O)[C@H]1O)[C@H](O)C2(C)C`, the Activity result in the data set with RAW264.7 [1] is on record as “Non-toxic”. In addition, the inhibition (as a rule, the percentage by which the read-out fell short of the control) at 20 µM in the data set with RAW264.7 [2] turned out to be 98.5%.
For `CC(=O)/C=C/[C@@]12O[C@@H](C[C@]1(C)O[C@@H]1O[C@H](CO[C@@H]3OC[C@](O)(CO)[C@H]3O)[C@@H](O)[C@H](O)[C@H]1O)[C@H](O)C2(C)C`, in that order: “Non-toxic” and 90.9%.
`CC(=O)/C=C/[C@@]12O[C@@H](CC1(C)C)C[C@@]2(C)O[C@@H]1O[C@H](CO)[C@@H](O)[C@H](O)[C@H]1O`: in the data set with RAW264.7 [1], the Activity result was “Non-toxic”. In addition, the inhibition at 20 µM with RAW264.7 [2] came out at 84.8%.
As for `C[C@H](CC[C@H]1[C@H](C)C[C@H](O)CC1(C)C)O[C@@H]1O[C@H](CO)[C@@H](O)[C@H](O)[C@H]1O`, the Activity result with RAW264.7 [1] is on record as “Non-toxic”. Besides, the inhibition entry with RAW264.7 [3] and in the data set with RAW264.7 [2] was “Active” throughout. Further, in the data set on RAW264.7 [4], the inhibition at 40 µM came to 82%.
Regarding `C[C@H](/C=C/[C@@]1(O)[C@H](C)CC(=O)CC1(C)C)O[C@@H]1O[C@H](CO)[C@@H](O)[C@H](O)[C@H]1O`, the Activity result with RAW264.7 [1] was “Non-toxic”. Further, the inhibition result with RAW264.7 [3], in the data set on RAW264.7 [2] and in the data set with RAW264.7 [4] was “inactive” in each case.
In the case of `C[C@H](CC[C@H]1[C@H](C)CC(=O)CC1(C)C)O[C@@H]1O[C@H](CO)[C@@H](O)[C@H](O)[C@H]1O`, the Activity result in the data set on RAW264.7 [1] is “Non-toxic”. In addition, the inhibition entry in the data set on RAW264.7 [3], with RAW264.7 [2] and in the data set with RAW264.7 [4] was “inactive” throughout.
Regarding `CC1=C2C[C@@H]3[C@@](C)(C[C@]2(O)OC1=O)[C@H](O)CC[C@]3(C)O`, the Activity result in the data set on RAW264.7 [1] is recorded as “Non-toxic”. For the same compound, the inhibition result with RAW264.7 [3], with RAW264.7 [2] and in the data set on RAW264.7 [4] was “inactive” each time.
As for `CC/C=C\CCO[C@@H]1O[C@H](CO)[C@@H](O)[C@H](O)[C@H]1O`, the Activity entry with RAW264.7 [1] is given as “Non-toxic”. Moreover, the inhibition at 20 µM in the data set on RAW264.7 [2] came out at 91.8%.
Regarding `COc1cc([C@H](O)[C@H](CO)O[C@@H]2O[C@H](CO)[C@@H](O)[C@H](O)[C@H]2O)ccc1O`, the Activity result in the data set with RAW264.7 [1] is “Non-toxic”. Moreover, the “inhibition (INH)” value in the data set with RAW264.7 [5] is reported as 98%. Also, the inhibition at 20 µM in the data set on RAW264.7 [2] worked out at 91.5%.
As for `CC(C)CC(=O)c1c(O)cc(O)cc1O[C@@H]1O[C@H](CO)[C@@H](O)[C@H](O)[C@H]1O`, the Activity entry with RAW264.7 [1] is “Non-toxic”. Also, the inhibition entry in the data set with RAW264.7 [3], with RAW264.7 [2] and with RAW264.7 [4] was “inactive” each time.
As for `COc1cc([C@H](O)[C@@H](O)CO)cc(OC)c1O` (relative stereo), in the data set with RAW264.7 [1], the Activity result is “Non-toxic”. Moreover, the inhibition result in the data set on RAW264.7 [3], with RAW264.7 [2] and with RAW264.7 [4] was “inactive” each time.
`COc1cc([C@H](O)[C@H](O)CO)cc(OC)c1O` (relative stereo): the Activity result in the data set with RAW264.7 [1] is “Non-toxic”. Also, the inhibition entry in the data set on RAW264.7 [3], in the data set on RAW264.7 [2] and with RAW264.7 [4] was “inactive” each time.
Take `COc1cc([C@H](O)[C@@H](O)CO)ccc1O` (relative stereo): the Activity entry with RAW264.7 [1] is reported as “Non-toxic”. For the same compound, the “inhibition (INH)” value in the data set with RAW264.7 [5] is given as 48.4%. Further, the inhibition entry in the data set with RAW264.7 [3], in the data set with RAW264.7 [2] and with RAW264.7 [4] was “inactive” in each case.
In the case of `COc1cc([C@H](O)[C@H](O)CO)ccc1O` (relative stereo), the Activity entry in the data set with RAW264.7 [1] is “Non-toxic”. The “inhibition (INH)” value in the data set with RAW264.7 [5] is given as 48.4%. Also, the inhibition entry with RAW264.7 [3], in the data set with RAW264.7 [2] and with RAW264.7 [4] was “inactive” each time.
For the compound `Oc1cc(O)c2c(c1)O[C@H](c1ccc(O)c(O)c1)[C@H](O)C2` [(-)-EPICATECHIN], in the data set on RAW264.7 [1], the Activity result is “Non-toxic”. The inhibition result in the data set on RAW264.7 [3] and in the data set with RAW264.7 [2] was “Active” throughout. Besides, in the data set on RAW264.7 [4], the inhibition at 40 µM was found to be 91.8%.
On to `CC1=C2C[C@@H]3[C@@](C)(C[C@]2(O)OC1=O)[C@H](O)CC[C@@]3(C)O` [CHLORAEUDOLIDE], for which the Activity entry in the data set with RAW264.7 [1] is “Non-toxic”. Besides, the inhibition result in the data set on RAW264.7 [3], in the data set on RAW264.7 [2] and in the data set on RAW264.7 [4] was “inactive” throughout.
On to `COc1cc(-c2oc3cc(OC)c(O)c(O)c3c(=O)c2OC)ccc1O` [CHRYSOSPLENOL C], for which the Activity result with RAW264.7 [1] is on record as “Non-toxic”. The inhibition result in the data set with RAW264.7 [3], in the data set with RAW264.7 [2] and in the data set on RAW264.7 [4] was “inactive” in each case.
Turning to `C[C@@H]1O[C@@H](OC[C@H]2O[C@@H](Oc3c(-c4ccc(O)c(O)c4)oc4cc(O)cc(O)c4c3=O)[C@H](O)[C@@H](O)[C@@H]2O)[C@H](O)[C@H](O)[C@H]1O` [RUTIN], in the data set on RAW264.7 [1], the Activity result is “Non-toxic”. The inhibition result in the data set on RAW264.7 [3], with RAW264.7 [2] and in the data set with RAW264.7 [4] was “inactive” throughout.
Consider `O=C1/C(=C/c2ccc(O)c(O)c2)Oc2cc(O)ccc21` [SULFURETIN], for which the inhibition at 20 µM in the data set with RAW264.7 [2] was determined as 81.3%.

Source of the values: ChEMBL document CHEMBL3608291, “Chemical constituents of Miliusa balansae leaves and inhibition of nitric oxide production in lipopolysaccharide-induced RAW 264.7 cells” (Bioorg Med Chem Lett, 2015).
